Measurements as given in patent US7964629B2, “Inhibitors of isoprenylcysteine carboxyl methyltransferase” (Duke Universtiy, priority 2005, dated 2011).
Read-outs that look alike come from different tables or passages of the source.

Molecular target: T1, recombinant human Icmt (Homo sapiens, UniProt O60725)
T1 construct: recombinant baculovirus containing the entire open reading frame of the human Icmt cDNA; made in house; host or cells: Sf9 insect cells (baculovirus); membrane fraction used
Test: Icmt assay: [3H]methyl incorporation from [3H]AdoMet into BFC
Format: biochemical

[1] = Table 2, no pre-incubation, read-out: IC50
[2] = Table 3, pre-incubation with Icmt for 30 min at 37° C., read-out: IC50 PI (converted)

T1 sequence (O60725 whole entry): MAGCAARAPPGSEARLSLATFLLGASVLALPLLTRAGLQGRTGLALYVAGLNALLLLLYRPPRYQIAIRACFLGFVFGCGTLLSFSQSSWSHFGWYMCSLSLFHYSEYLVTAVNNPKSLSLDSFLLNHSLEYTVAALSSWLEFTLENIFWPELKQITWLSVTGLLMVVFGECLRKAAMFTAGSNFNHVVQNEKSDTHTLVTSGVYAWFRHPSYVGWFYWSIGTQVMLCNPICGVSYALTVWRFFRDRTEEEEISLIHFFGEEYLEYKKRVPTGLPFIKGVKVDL

Molecule	IC50 [1] [µM]	also measured
CC(C)(C)c1ccc(Cn2cc(CC=O)c3cc(-c4cccc(F)c4)ccc32)cc1 [9B12/A119029]	4	–
O=CCc1cn(Cc2cccc(C(F)(F)F)c2)c2ccc(-c3cc(C(F)(F)F)cc(C(F)(F)F)c3)cc12 [9L10/A119032]	> 30	–
O=CCc1cn(Cc2ccccc2)c2ccc(-c3ccc(Oc4ccccc4)cc3)cc12 [9B8/A119007]	7	–
O=CCc1cn(Cc2ccc3ccccc3c2)c2ccc(-c3ccc(Oc4ccccc4)cc3)cc12 [9N14/A119079]	20	–
O=CCc1cn(Cc2cccc(C(F)(F)F)c2)c2ccc(-c3ccc(Oc4ccccc4)cc3)cc12 [9D12/A119039]	7	–
O=CCc1cn(Cc2cccc(C(F)(F)F)c2)c2ccc(-c3ccc(F)c(Cl)c3)cc12 [9H14/A119033]	6	–
Cc1ccc(-c2ccc3c(c2)c(CC=O)cn3CC2CC2)cc1 [9N8/A119058]	> 30	–
CCOc1cccc(-c2ccc3c(c2)c(CC=O)cn3Cc2cccc(C(F)(F)F)c2)c1 [9F10/A119038]	–	IC50: 6 µM
COc1ccccc1-c1ccc2c(c1)c(CC=O)cn2CC1CC1 [9F8/A119059]	> 30	–
Cc1cccc(-c2ccc3c(c2)c(CC(N)=O)cn3Cc2ccccc2)c1 [(e1)/drawing 2]	–	IC50 [2]: 2.4 µM
CC(C)Cn1cc(CC(N)=O)c2cc(-c3cccc(F)c3)ccc21 [(a1)/drawing 3]	–	IC50 (Table 1, R1 substituent x scaffold matrix, read-out: IC50): 13.7 ± 0.3 µM
O=CCc1cn(CC2CC2)c2ccc(-c3cc(C(F)(F)F)cc(C(F)(F)F)c3)cc12 [9H12/A119056]	20	–
biotin-S-farnesyl-L-cysteine [BFC, reference compound]	–	Km (standard in vitro methylation assay, read-out: Km as Icmt substrate): 2.1 ± 0.4 µM
COc1ccccc1-c1ccc2c(c1)c(CC=O)cn2Cc1ccc2ccccc2c1 [9N12/A119075]	18	–
CCCCCCCCn1cc(CC=O)c2cc(-c3cc(C(F)(F)F)cc(C(F)(F)F)c3)ccc21 [9L22/A119040]	> 30	–
O=CCc1cn(CCCOc2ccccc2)c2ccc(-c3cc(C(F)(F)F)cc(C(F)(F)F)c3)cc12 [9D10/A119048]	> 30	–
CC(C)Cn1cc(CC=O)c2cc(-c3cc(C(F)(F)F)cc(C(F)(F)F)c3)ccc21 [9B22/A119064]	8	–
CCOc1cccc(-c2ccc3c(c2)c(CC=O)cn3Cc2ccc(C(C)(C)C)cc2)c1 [9B6/A119030]	3	–
Cc1cccc(-c2ccc3c(c2)c(CC(N)=O)cn3CC2CC2)c1 [(b1)/drawing 2]	–	IC50 [2]: 9.5 µM
CCCCCCn1cc(CC(N)=O)c2cc(-c3cccc(C)c3)ccc21 [(c1)/drawing 2]	–	IC50 [2]: 1.7 µM
Cc1ccc(-c2ccc3c(c2)c(CC=O)cn3Cc2cccc(C(F)(F)F)c2)cc1 [9H4/A119034]	7	–
CC(C)(C)c1ccc(Cn2cc(CC=O)c3cc(-c4ccc(F)c(Cl)c4)ccc32)cc1 [9N6/A119025]	5	–
O=CCc1cn(Cc2ccccc2)c2ccc(-c3cc(C(F)(F)F)cc(C(F)(F)F)c3)cc12 [9H6/A119000]	18	–
O=CCc1cn(CCCOc2ccccc2)c2ccc(-c3ccc(Oc4ccccc4)cc3)cc12 [9B20/A119055]	14	–
Cc1cccc(-c2ccc3c(c2)c(CC(N)=O)cn3CC(C)C)c1 [(a1)/drawing 2]	–	IC50 [2]: 17.7 µM
CC(C)(C)c1ccc(Cn2cc(CC=O)c3cc(-c4cc(C(F)(F)F)cc(C(F)(F)F)c4)ccc32)cc1 [9B4/A119024]	4	–
Cc1cccc(-c2ccc3c(c2)c(CC(N)=O)cn3Cc2cccc(C(F)(F)F)c2)c1 [(g1)/drawing 2]	–	IC50 [2]: 0.71 µM
CCCCCCCCn1cc(CC=O)c2cc(-c3ccc(Oc4ccccc4)cc3)ccc21 [9D18/A119047]	5	–
Cc1cccc(-c2ccc3c(c2)c(CC=O)cn3Cc2ccc3ccccc3c2)c1 [9N22/A119076]	20	–

Now from value to molecule, other results behind:

IC50 [1] [µM]	Molecule	also measured
7	CCCCCCn1cc(CC=O)c2cc(-c3ccc(F)c(Cl)c3)ccc21 [9F18/A119017]	–
9	CCCCCCCCn1cc(CC=O)c2cc(-c3ccc(C)cc3)ccc21 [9L6/A119042]	–
9	O=CCc1cn(Cc2ccccc2)c2ccc(-c3ccc(F)c(Cl)c3)cc12 [9N10/A119001]	–
20	CCCCCCn1cc(CC=O)c2cc(-c3ccc(Oc4ccccc4)cc3)ccc21 [9D20/A110023]	–
> 30	O=CCc1cn(CC2CC2)c2ccc(-c3ccc(F)c(Cl)c3)cc12 [9J8/A119057]	–
23	CCCCCCn1cc(CC=O)c2cc(-c3ccc(C)cc3)ccc21 [9L4/A119018]	–
5	CCCCCCCCn1cc(CC=O)c2cc(-c3ccccc3OC)ccc21 [9J16/A119043]	–
1	CCCCCCCCn1cc(CC=O)c2cc(-c3ccc(F)c(Cl)c3)ccc21 [9L8/A119041]	–
2	CCCCCCCCn1cc(CC=O)c2cc(-c3cccc(OCC)c3)ccc21 [9F20/A119046]	–
3	CCCCCCCCn1cc(CC=O)c2cc(-c3cccc(F)c3)ccc21 [9J18/A119045]	IC50 (Table 2, pre-incubation of enzyme with inhibitor, read-out: IC50 pre-inc): < 0.3 µM
7	CCCCCCn1cc(CC=O)c2cc(-c3cccc(OCC)c3)ccc21 [9H10/A119022]	–
7	CCCCCCn1cc(CC=O)c2cc(-c3cccc(C)c3)ccc21 [9J22/A119020]	–
